From patent US20120003298A1, “METHODS FOR INDUCING AN IMMUNE RESPONSE” (priority 2010, published 2012)

How the values were obtained:
HLA-DR+/CD20+ B cells = experiment: FACS, B cell activation in whole blood; assay type: cell-based, human; settings: 24 hours; 2 and 10 uM
Protocol: The FACS analysis for donor 1 and donor 2 was made on another day than donor 3. The compound concentrations were as follows:
B cell activation: 2 and 10 uM mDC/pDC: 0.1 and 0.5 uM
The FACS analysis was used to identify whether the test compounds could induce activation of B cells, and two different subsets of dendritic cells, namely the myeloid CD11c+/CD123− DCs and the plasmacytoid CD11c−/CD123+DCs. The following markers were studied to identify the activation status of the different subsets:
B-cells: HLA-DR/CD20/CD40
The FACS staining was performed according to the manufacturer's instructions. Lysis of red blood cells was performed before FACS staining in order to minimize auto-florescence. To include as many B cells and DCs in the study as possible the FACS analyses were performed on 500,000 cells in total for each staining. […] The results of the individual analysis were present as Mean Fluorescence Intensity (MFI) values, for certain activation marker in a given gate setting, represent the actual cell subset. The isotype background values have been used to set the gates so that a maximum at 2% of unspecific stained cells could be found in the positive gates.
The analysis of expression of the activation marker CD40 on B cells was made on double positive HLA-DR (MHC class II) (P4 gate) and CD20 cells (B cell marker) (P8 gate).

NFκB-bla Raw 264.7 Cells = experiment: NFκB activation in NFκB-bla Raw 264.7 cells; assay type: cell-based, mouse; settings: FIG. 2
Protocol: NFκB-bla Raw 264.7 Cells were purchased from Life Technologies Corporation (Carlsbad, Calif.). […] Drugs were dissolved and diluted in DMSO to obtain an initial stock solution (10 or 50 mM). Drugs were then serially diluted (usually 1:3 or 1:5) in DMSO. The stock solutions were further diluted in Assay Medium and added to cells already in each well.

[1] = In vivo pharmacodynamics, serum cytokines after intravenous injection; set-up: species or system mouse; settings: 200 nmol intravenously
Protocol: For in vivo pharmacodynamic experiments, 6- to 8-week old C57BU6 mice were intravenously injected with the unconjugated and phospholipid-conjugated TLR7 agonists (200 nmol). Sera were separated and kept at −20° C. until use. The levels of cytokines in the sera were measured by Luminex bead microassay. The minimum detection levels of IL-6 and TNF-alpha were 5 pg/mL and 10 pg/mL, respectively.

OVA specific Ig = experiment: Adjuvanticity with ovalbumin (OVA), subcutaneous immunization; assay type: in vivo, mouse
Description: For the adjuvanticity experiments, mice were subcutaneously immunized with 20 pg ovalbumin (OVA) with 10 nmol or 100 nmol (TLR7 agonist equivalent dose) per mouse in various TLR7 conjugates on days 0 and 7. Sera were collected on days 0, 7, 14, 21, 28, 42, and 56. Mice immunized with saline or OVA mixed with vehicle served as controls. Mice were sacrificed on day 56.
Immunization occurs on day 0 and 7. Serum collection day is on 0, 7, 14, 21, 28, 42 and 56 days.

[2] = tested on: Salmonella typhimurium TA1535, TA1537, TA98, TA100; experiment: Bacterial mutation assay, Salmonella typhimurium; assay type: cell-based
Protocol: (§1) The five tester strains TA1535, TA1537, TA98, TA100 and WP2 uvrA were used. Experiments were performed both in the absence and presence of metabolic activation, using liver S9 fraction from rats pre-treated with phenobarbitone and betanaphthoflavone. SC12 was used as a solution in dimethylsulfoxide (DMSO).

[3] = tested on: Escherichia coli WP2 uvrA; experiment: Bacterial mutation assay, Escherichia coli; assay type: cell-based
Protocol: as §1

[4] = tested on: 73 primary molecular targets; experiment: Radioligand binding assay among 73 primary molecular targets; settings: SC12 tested at 30 microM
CYP2C9 = biological target: T1, CYP2C9 (Homo sapiens, UniProt P11712); experiment: Fluorescent High Throughput P450 assay, CYP2C9; assay type: biochemical
T1 construct: purchased Gentest
T1 sequence (P11712 whole entry): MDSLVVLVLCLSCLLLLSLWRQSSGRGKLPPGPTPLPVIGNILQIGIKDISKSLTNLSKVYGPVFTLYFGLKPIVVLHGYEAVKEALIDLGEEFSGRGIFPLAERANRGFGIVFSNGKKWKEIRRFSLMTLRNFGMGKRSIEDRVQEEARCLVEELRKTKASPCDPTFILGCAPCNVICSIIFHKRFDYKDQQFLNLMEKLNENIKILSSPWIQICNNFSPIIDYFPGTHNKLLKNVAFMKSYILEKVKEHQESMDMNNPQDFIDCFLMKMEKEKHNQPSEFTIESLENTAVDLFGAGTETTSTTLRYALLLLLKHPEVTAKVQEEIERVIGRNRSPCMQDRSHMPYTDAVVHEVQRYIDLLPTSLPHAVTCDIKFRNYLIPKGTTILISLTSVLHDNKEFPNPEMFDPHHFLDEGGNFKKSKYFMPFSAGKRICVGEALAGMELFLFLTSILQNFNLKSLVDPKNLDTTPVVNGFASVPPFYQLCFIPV
Protocol: (§2) Inhibition of the P450 isoforms was measured in specific assays using specific substrates that become fluorescent upon CYP metabolism. Compounds, dissolved in ACN (acetonitrile) (CYP2E1, CYP2C8, CYP2B6, CYP3A5) or DMSO (all remaining isoforms), were tested in duplicate (n=2) in concentration-response curves (eight concentrations) in a 96-well plate containing incubation/NADPH regenerating buffer. Specific isoenzymes and substrates were added and incubated at 37° C. Reactions were terminated at different times, depending on the assays, and plates read on a Fluoroskan Ascent at the appropriate emission/excitation wavelengths. Concentration-response curves performed in duplicate for known inhibitors for each isoenzyme were tested in every assay as positive control.

CYP3A4 = biological target: T2, CYP3A4 (Homo sapiens, UniProt P08684); experiment: Fluorescent High Throughput P450 assay, CYP3A4; assay type: biochemical
T2 construct: purchased Gentest
T2 sequence (P08684 whole entry): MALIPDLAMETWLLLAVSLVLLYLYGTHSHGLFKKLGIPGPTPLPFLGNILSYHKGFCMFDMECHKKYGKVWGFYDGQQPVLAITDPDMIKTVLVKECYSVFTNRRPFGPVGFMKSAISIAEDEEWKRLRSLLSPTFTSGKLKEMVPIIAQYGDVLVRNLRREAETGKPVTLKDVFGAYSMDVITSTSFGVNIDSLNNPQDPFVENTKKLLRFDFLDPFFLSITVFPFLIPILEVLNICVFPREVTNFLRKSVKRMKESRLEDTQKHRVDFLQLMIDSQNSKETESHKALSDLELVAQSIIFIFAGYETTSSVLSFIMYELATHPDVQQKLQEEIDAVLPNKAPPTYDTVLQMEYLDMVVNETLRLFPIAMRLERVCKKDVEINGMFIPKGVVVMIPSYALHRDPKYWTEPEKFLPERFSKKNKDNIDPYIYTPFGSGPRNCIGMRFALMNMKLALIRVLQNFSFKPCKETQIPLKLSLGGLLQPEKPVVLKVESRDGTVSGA
Protocol: as §2

CYP2E1 = biological target: T3, CYP2E1 (Homo sapiens, UniProt P05181); experiment: Fluorescent High Throughput P450 assay, CYP2E1; assay type: biochemical
T3 construct: purchased Gentest
T3 sequence (P05181 whole entry): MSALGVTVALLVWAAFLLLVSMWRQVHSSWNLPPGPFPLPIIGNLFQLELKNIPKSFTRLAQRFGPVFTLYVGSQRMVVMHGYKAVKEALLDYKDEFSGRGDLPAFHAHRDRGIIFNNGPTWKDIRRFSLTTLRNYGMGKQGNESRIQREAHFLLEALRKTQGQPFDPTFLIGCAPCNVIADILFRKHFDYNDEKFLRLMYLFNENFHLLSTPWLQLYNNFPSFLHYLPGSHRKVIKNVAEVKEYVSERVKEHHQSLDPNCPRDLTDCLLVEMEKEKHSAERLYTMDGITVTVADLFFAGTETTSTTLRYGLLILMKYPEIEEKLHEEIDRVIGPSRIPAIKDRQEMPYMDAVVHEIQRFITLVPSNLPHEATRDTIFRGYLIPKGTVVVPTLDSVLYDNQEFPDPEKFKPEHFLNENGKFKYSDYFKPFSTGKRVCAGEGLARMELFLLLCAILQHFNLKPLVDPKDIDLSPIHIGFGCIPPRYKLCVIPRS
Protocol: as §2

[5] = tested on: recombinant antigens from Plasmodium falciparum and Mycobacterium ulcerans; experiment: Pilot immunization study with adjuvanted recombinant protein antigens; assay type: in vivo, mouse
Protocol: A pilot immunization study was conducted using Compound A and SC12 adjuvanted protein antigens. The immunization experiments were performed with two recombinant proteins expressed in E. coli. One antigen was derived from the malaria parasite Plasmodium falciparum and the other one from Mycobacterium ulcerans, which cause the ulcerative skin disease Buruli ulcer.

[6] = Intrabladder application, serum cytokines (Luminex) and histology; assay type: in vivo, mouse
Protocol: Female C57BU6 mice were anesthetized with ketamine/xylazine. The 50 microliter formulated compounds were intravesically administered for twenty minutes at each treatment. The treatment schedule and doses are in Table 35 and 36, respectively. The levels of cytokines (IL-6, IL-12, and TNF-alpha) were determined by Luminex assay. Paraffin sections were prepared and H & E staining performed.

Inv-Myc mice = experiment: Mouse skin cancer model (Inv-Myc mice, Tamoxifen induction), topical creams; assay type: in vivo
Protocol: The mice used are essentially discussed in Pelengaris, S., et al., (1999) Molecular Cell 3:565-77. Activation of c-myc in this model, such as by the application of Tamoxifen, leads to increased keratinocyte proliferation, reversible epidermal hyperplasia, and papillomatosis changes.
Sex-matched 8-15 week old Inv-Myc mice were used for the study. The mice were shaved on the back 24 hours before the daily Tamoxifen induction (1 mg/200 microliters ethanol, day 0 to 7) to an area 5×3 cm^2. […] Mice were sacrificed on day 10. […] Sera were collected when mice were sacrificed and 2 hours after the first cream application in some instances.

RAW.264 cells = experiment: Intracellular uptake in RAW.264 cells, LC-MS; assay type: in vitro ADME; settings: 10 microM
Protocol: 5×10^6 RAW.264 cells were adhered overnight in 10 cm tissue culture dishes. […] […] Supernatant (2 ml) and cells (pellets) were collected by trypsinization and frozen at […] for subsequent analysis by LC-MS.

[7] = tested on: Cutaneous Squamous Cell Carcinoma (SCC) cell lines SCL-I, SCL-II, SCC-12, SCC-13
Protocol: SCC cells are grown under standard conditions (10% FBS).
Time and dose dependency of effects on total cell numbers have been investigated by real-time cell analysis, which is based on continuous monitoring of electric conductance in microtiter wells (E-plates, Roche), which corresponds to the cell numbers. […] For these assays 4 cell lines may be used to obtain a representative overview on the effects on SCC cells.

[8] = Solubility observations in the text
[9] = tested on: AY-27 rat bladder cancer cell-line; experiment: Orthotopic rat bladder cancer model, intravesical instillation; settings: of 14 per group
[10] = Stability on storage by HPLC (solid or chloroform solution; temperature, light); settings: for HPLC % at RRT = 1: SC12
Protocol: At this point, a stability study was conducted on batch CH730/16/8g.
The samples were analyzed at t=0 and after 20 days.

[11] = 50.0-5000 micrograms/plate, absence or presence of S9
[12] = up to 5000 micrograms/plate, absence or presence of S9 metabolism

Structure (SMILES): CCCCCCCCCCCC(=O)OCC(COP(=O)(O)OCCNC(=O)c1ccc(Cn2c(=O)[nH]c3c(N)nc(OCCOC)nc32)cc1)OC(=O)CCCCCCCCCCC (centres unmarked) [SC12]
- CD40 expression on B cells (MFI, words) (HLA-DR+/CD20+ B cells): induced CD40 expression in donor 1 and donor 2 in all tested concentrations
- activity in NFkB RAW cells (NFκB-bla Raw 264.7 Cells): more active than the free pharmocophore
- time course of cytokine induction [1]: lower but sustained cytokine induction than the free ligand
- serum proinflammatory cytokine levels ([1]; C57BL/6 mice): induced similar levels of the proinflammatory cytokines IL-6, IL-12 and TNF-alpha
- adjuvant potency, Th1 immune response (OVA specific Ig; 100 nmoles SC12 equivalent to 10 nmoles compound A): 10 times less potent than compound A or compound A*
- antigen specific IgG2a (OVA specific Ig; OVA 20 μg with 10 or 100 nmoles, days 0 and 7): significantly higher than the immunization with OVA alone
- OVA-specific IgG1 (OVA specific Ig; mouse, in vivo): not found to induce high levels of OVA-specific IgG1
- toxicity to tester strains [2, 11]: No toxicity was observed with any tester strain at any dose level
- reverse mutation [2, 12]: does not induce reverse mutation
- toxicity to tester strains [3, 11]: No toxicity was observed with any tester strain at any dose level
- reverse mutation [3, 12]: does not induce reverse mutation
- binding to receptors associated with pain-related syndromes (e.g. adenosine and sodium channel) [4]: did not bind this type of receptors
- inhibition of CYP2C9 (CYP2C9): weak inhibition
- inhibition of CYP3A4 (CYP3A4): moderate inhibition
- inhibition of CYP2E1 (CYP2E1): moderate inhibition
- local side effects ([5]; subcutaneous, 10 nMol): No local side effects
- IgG responses against the target antigens ([5]; three subcutaneous immunizations, 20 micrograms antigen with 10 nMol adjuvant): developed IgG responses
- serum IL-12 ([6]; day 0, 2 hour time point, intravesical about 207 nmoles in 50 μl): elevated levels of IL-12
- bladder histology, cell infiltration ([6]; day 7): immune cell infiltration in the bladder
- serum IL-6 (Inv-Myc mice; 2 hours after the first administration): less IL-6 than Aldara
- Ki67 positive cells (Inv-Myc mice; Experiment 1): decreased Ki67 positive cells
- gross appearance of skin (Inv-Myc mice; Experiment 1): redness and scaling
- gross appearance of skin (Inv-Myc mice; Experiment 2): smooth and soft
- skin thickness (Inv-Myc mice; Experiment 2): decreased development of skin thickness
- acanthosis (Inv-Myc mice; cream every other day, days 0-8): reduction in acanthosis
- eczematous reaction (Inv-Myc mice; mouse, in vivo): less eczematous reaction than Aldara (Imiquimod) cream
- Intracellular Concentration % of total (RAW.264 cells; Incubation 1 hours): 18.5 % of total
- Intracellular Concentration % of total (RAW.264 cells; Incubation 6 hours): 20.6 % of total
- Intracellular Concentration % of total (RAW.264 cells; Incubation 18 hours): 21.4 % of total
- cell numbers, real-time cell analysis ([7]; FIG. 11): reduced cell numbers
- morphology and proliferation ([7]; day 3, 120 microM): cell detachment, morphological changes and inhibition of proliferation
- solubility ([8]; P450 assays, especially in ACN): low solubility
- precipitation in bacterial mutation assay ([8]; toxicity test, two highest concentrations (5000 and 1580 micrograms/plate), end of incubation): Precipitation
- Number of rat bladders Tumor free [9]: 6
- Number of rat bladders with pT2 Tumor [9]: 7
- Number of rat bladders with pTa Tumor [9]: 1
- Tumor free, share of group [9]: 42.9%
- pT2 Tumor, share of group [9]: 50.0%
- pTa Tumor, share of group [9]: 7.1%
- HPLC % at RRT = 1 ([10]; Solid, RT and light, t = 20 days): RRT = 1: 87.8%
- HPLC % at RRT = 1 ([10]; Solid, external T and light, t = 20 days): RRT = 1: 84.0%
- HPLC % at RRT = 1 ([10]; Solution in CHCl3, RT and light, t = 0): RRT = 1: 90.3%
- HPLC % at RRT = 1 ([10]; Solution in CHCl3, RT and light, t = 20 days): RRT = 1: 88.0%
- stability compared with compound A ([10]; storage 20 days): more stable than compound A
